Measured values from patent US4490370A, “Naphthylglycyl cephalosporin derivatives” (priority 1983, dated 1984).
In brackets after ≈: the same amount, converted by molar mass. Where a name gives a salt, the structure may show the parent alone. Read-outs that look alike come from different tables or passages of the source.

Assays:
Assay type in all cases: cell-based
[1] = system: Strep. A; assay: Agar dilution MIC, Strep. A; conditions: Table I, strain C203; read-out: MIC
Source text: (§1) A typical and preferred compound provided by this invention is 7-(2-naphthylglycylamido)-3-methyl-3-cephem-4-carboxylic acid, the compound of Example 3. The antibacterial activity of this compound and several others of the invention has been determined in standard in vitro agar dilution assays against a variety of gram positive microorganisms. The following Tables present typical minimum inhibitory concentrations (MIC's) in μg/ml for the compounds when evaluated against the indicated microorganisms. MIC's for several known compounds are also presented for comparison.

[2] = system: Klebsiella; assay: Agar dilution MIC, Klebsiella; conditions: Klebsiella; Table I, strain X26; read-out: MIC
Source text: as §1

[3] = system: Staph. epi; assay: Agar dilution MIC, Staph. epi; conditions: read-out: MIC
Source text: (§2) The following Tables present typical minimum inhibitory concentrations (MIC's) in μg/ml for the compounds when evaluated against the indicated microorganisms.

[4] = system: H. influ.; assay: Agar dilution MIC, H. influenza; conditions: read-out: MIC
Source text: as §2

[5] = system: Staph. aureus; assay: Agar dilution MIC, Staph. aureus; conditions: Staphylococcus aureus
Source text: as §2

[6] = system: Strep. PN; assay: Agar dilution MIC, Strep. PN; conditions: Table I, strain PARK; read-out: MIC
Source text: as §2

[7] = Table II expanded spectrum, strain EPI1
[8] = Table I, strain V41, read-out: MIC
[9] = Table I, strain X1.1, read-out: MIC
[10] = Table I, strain X400, read-out: MIC
[11] = Table II, strain S224, read-out: MIC
[12] = Table II, strain S225, read-out: MIC
[13] = Table II, strain S226, read-out: MIC
[14] = Table II, strain S227, read-out: MIC
[15] = Table II, strain S228, read-out: MIC
[16] = Table II, strain S229, read-out: MIC
[17] = Table II, strain S230, read-out: MIC
[18] = Table II, strain S231, read-out: MIC
[19] = Table II, strain S234, read-out: MIC
[20] = Table II, strain S237, read-out: MIC
[21] = Table II, strain S238, read-out: MIC
[22] = Table II, strain S239, read-out: MIC

SMILES | MIC [1] [µg/mL] | MIC [2] [µg/mL] | MIC ([3]; Table I, strain 222) [µg/mL] | MIC ([3]; Table I, strain EPI1) [µg/mL] | MIC [3, 7] [µg/mL] | MIC ([3]; Table II, strain 219) [µg/mL] | MIC ([3]; Table II, strain 269) [µg/mL] | MIC ([3]; Table II, strain 270) [µg/mL] | MIC ([3]; Table II, strain 285) [µg/mL] | MIC ([3]; Table II, strain 286) [µg/mL] | MIC ([4]; Table I, strain BRUN) [µg/mL] | MIC ([4]; Table II, strain M366) [µg/mL] | MIC ([4]; Table II, strain R465) [µg/mL] | MIC ([4]; Table II, strain STEL) [µg/mL] | MIC ([5]; Table I, strain S13E) [µg/mL] | MIC [5, 8] [µg/mL] | MIC [5, 9] [µg/mL] | MIC [5, 10] [µg/mL] | MIC [5, 11] [µg/mL] | MIC [6] [µg/mL] | further results
COc1ccc2cc([C@@H](N)C(=O)NC3C(=O)N4C(C(=O)O)=C(C)CSC34)ccc2c1 (stereo partly drawn) [Example 10, D-7-(6-Methoxy-2-naphthyl)glycylamido-3-methyl-3-cephem-4-carboxylic acid] | 0.125 (≈ 0.292 µM) | 4 (≈ 9.36 µM) | 1 (≈ 2.34 µM) | 4 (≈ 9.36 µM) | 4 (≈ 9.36 µM) | 5 (≈ 11.7 µM) | 2 (≈ 4.68 µM) | 4 (≈ 9.36 µM) | 2 (≈ 4.68 µM) | 0.5 (≈ 1.17 µM) | 16 (≈ 37.4 µM) | 16 (≈ 37.4 µM) | 16 (≈ 37.4 µM) | 16 (≈ 37.4 µM) | 16 (≈ 37.4 µM) | 16 (≈ 37.4 µM) | 0.25 (≈ 0.585 µM) | 64 (≈ 150 µM) | 0.5 (≈ 1.17 µM) | 0.125 (≈ 0.292 µM) | MIC ([4]; Table II, strain 1930): 8 µg/mL (≈ 18.7 µM); MIC ([4]; Table II, strain C.L.): 8 µg/mL (≈ 18.7 µM); MIC ([4]; Table II, strain HESS): 8 µg/mL (≈ 18.7 µM); MIC [5, 12]: 0.5 µg/mL (≈ 1.17 µM); MIC [5, 13]: 1 µg/mL (≈ 2.34 µM); MIC [5, 14]: 1 µg/mL (≈ 2.34 µM); MIC [5, 15]: 0.5 µg/mL (≈ 1.17 µM); MIC [5, 16]: 1 µg/mL (≈ 2.34 µM); MIC [5, 17]: 0.5 µg/mL (≈ 1.17 µM); MIC [5, 18]: 0.25 µg/mL (≈ 0.585 µM); MIC [5, 19]: 1 µg/mL (≈ 2.34 µM); MIC [5, 20]: 1 µg/mL (≈ 2.34 µM); MIC [5, 21]: 1 µg/mL (≈ 2.34 µM); MIC [5, 22]: 1 µg/mL (≈ 2.34 µM)
CC1=C(C(=O)O)N2C(=O)C(NC(=O)[C@H](N)c3ccc4cc(O)ccc4c3)C2SC1 (stereo partly drawn) [Example 11, D-7-(6-hydroxy-2-naphthylglycyl-amido)-3-methyl-3-cephem-4-carboxylic acid] | 0.125 (≈ 0.302 µM) | 4 (≈ 9.67 µM) | 1 (≈ 2.42 µM) | 4 (≈ 9.67 µM) | 4 (≈ 9.67 µM) | 0.5 (≈ 1.21 µM) | 2 (≈ 4.84 µM) | 4 (≈ 9.67 µM) | 2 (≈ 4.84 µM) | 1 (≈ 2.42 µM) | 8 (≈ 19.3 µM) | > 64 | 16 (≈ 38.7 µM) | > 64 | – | 8 (≈ 19.3 µM) | 0.5 (≈ 1.21 µM) | 32 (≈ 77.4 µM) | 0.5 (≈ 1.21 µM) | 0.25 (≈ 0.605 µM) | MIC [5, 12]: 0.5 µg/mL (≈ 1.21 µM); MIC [5, 13]: 1 µg/mL (≈ 2.42 µM); MIC [5, 14]: 0.5 µg/mL (≈ 1.21 µM); MIC [5, 15]: 0.5 µg/mL (≈ 1.21 µM); MIC [5, 16]: 1 µg/mL (≈ 2.42 µM); MIC [5, 17]: 0.5 µg/mL (≈ 1.21 µM); MIC [5, 18]: 0.5 µg/mL (≈ 1.21 µM); MIC [5, 19]: 1 µg/mL (≈ 2.42 µM); MIC [5, 20]: 1 µg/mL (≈ 2.42 µM); MIC [5, 21]: 1 µg/mL (≈ 2.42 µM); MIC [5, 22]: 1 µg/mL (≈ 2.42 µM)
N[C@@H](C(=O)NC1C(=O)N2C(C(=O)O)=CCSC12)c1ccc2ccccc2c1 (stereo partly drawn) [Example 12, D-7-(2-Naphthylglycylamido)-3-cephem-4-carboxylic acid trifluoroacetate] | 0.5 | 16 | 4 | 32 | – | – | – | – | – | – | 64 | – | – | – | 64 | 64 | – | – | – | 1 | MIC ([4]; Table I, strain 251): 16 µg/mL; MIC [5]: 4 µg/mL
